ChEMBL document CHEMBL4007467, “Effects of 6-paradol, an unsaturated ketone from gingers, on cytochrome P450-mediated drug metabolism” (Bioorg Med Chem Lett, 2017)

Legend:
Type in all cases: ADME
[1] = target: T1, CYP2D6 (Homo sapiens, UniProt P10635); experiment: Inhibition of CYP2D6 in human liver microsomes assessed as enzyme-mediated metabolite formation at 0.3 uM using dextromethorphan as substrate preincubated for 20 mins followed by substrate addition measured after 30 mins in presence of NADPH by LC-MS/MS analysis relative to control; design: scale not given: the % may be the effect or the level left; conditions: probe dextromethorphan, read-out: Activity
[2] = target: Cytochrome P450 2C19 (Homo sapiens, UniProt P33261); experiment: Inhibition of human CYP2C19 using (S)-mephenytoin as substrate incubated for 5 mins followed by NADPH addition measured after 30 mins by LC-MS/MS analysis
[3] = target: T2, CYP2A6 (Homo sapiens, UniProt P11509); experiment: Inhibition of CYP2A6 in human liver microsomes assessed as enzyme-mediated metabolite formation at 3 uM using coumarin as substrate incubated for 5 mins followed by NADPH addition measured after 30 mins by LC-MS/MS analysis relative to control; design: scale not given: the % may be the effect or the level left; conditions: probe coumarin, read-out: Activity
T2 sequence (P11509 whole entry): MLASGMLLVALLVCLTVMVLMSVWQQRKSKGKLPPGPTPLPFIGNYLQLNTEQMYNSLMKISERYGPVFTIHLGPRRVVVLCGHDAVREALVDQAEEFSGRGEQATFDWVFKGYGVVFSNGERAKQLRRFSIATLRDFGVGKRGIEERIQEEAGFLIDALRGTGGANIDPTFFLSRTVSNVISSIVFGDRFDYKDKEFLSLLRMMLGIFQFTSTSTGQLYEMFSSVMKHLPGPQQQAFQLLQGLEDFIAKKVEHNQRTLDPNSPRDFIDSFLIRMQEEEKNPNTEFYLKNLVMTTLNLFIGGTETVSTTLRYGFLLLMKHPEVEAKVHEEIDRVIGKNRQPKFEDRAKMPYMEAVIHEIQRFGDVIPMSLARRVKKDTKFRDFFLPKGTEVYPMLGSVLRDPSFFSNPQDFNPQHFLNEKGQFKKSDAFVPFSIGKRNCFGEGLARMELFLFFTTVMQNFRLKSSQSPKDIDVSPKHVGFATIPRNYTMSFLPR

[4] = target: Cytochrome P450 3A4 (Homo sapiens, UniProt P08684); experiment: Inhibition of CYP3A4 in human liver microsomes using midazolam as substrate preincubated for 20 mins followed by substrate addition measured after 30 mins in presence of NADPH by LC-MS/MS analysis
[5] = target: T3, CYP2C8 (Homo sapiens, UniProt P10632); experiment: Inhibition of CYP2C8 in human liver microsomes assessed as enzyme-mediated metabolite formation at 0.1 uM using paclitaxel as substrate incubated for 5 mins followed by NADPH addition measured after 30 mins by LC-MS/MS analysis relative to control; design: scale not given: the % may be the effect or the level left; conditions: probe paclitaxel, read-out: Activity
T3 sequence (P10632 whole entry): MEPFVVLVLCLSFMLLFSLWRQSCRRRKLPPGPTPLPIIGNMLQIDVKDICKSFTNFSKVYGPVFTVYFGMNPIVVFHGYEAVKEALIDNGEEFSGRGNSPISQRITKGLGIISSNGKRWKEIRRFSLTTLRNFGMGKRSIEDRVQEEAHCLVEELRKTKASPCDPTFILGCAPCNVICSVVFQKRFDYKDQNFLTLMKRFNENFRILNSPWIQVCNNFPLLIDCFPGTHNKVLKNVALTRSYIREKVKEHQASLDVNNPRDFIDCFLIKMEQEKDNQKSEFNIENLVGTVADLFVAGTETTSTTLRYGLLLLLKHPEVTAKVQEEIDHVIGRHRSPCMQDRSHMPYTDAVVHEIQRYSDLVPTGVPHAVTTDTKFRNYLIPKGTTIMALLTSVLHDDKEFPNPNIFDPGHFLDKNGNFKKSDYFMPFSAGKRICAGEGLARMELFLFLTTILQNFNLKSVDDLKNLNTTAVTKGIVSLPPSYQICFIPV

[6] = target: T4, CYP1A2 (Homo sapiens, UniProt P05177); experiment: Inhibition of CYP1A2 in human liver microsomes assessed as enzyme-mediated metabolite formation at 3 uM using phenacetin as substrate incubated for 5 mins followed by NADPH addition measured after 30 mins by LC-MS/MS analysis relative to control; design: scale not given: the % may be the effect or the level left; conditions: probe phenacetin, read-out: Activity
T4 sequence (P05177 whole entry): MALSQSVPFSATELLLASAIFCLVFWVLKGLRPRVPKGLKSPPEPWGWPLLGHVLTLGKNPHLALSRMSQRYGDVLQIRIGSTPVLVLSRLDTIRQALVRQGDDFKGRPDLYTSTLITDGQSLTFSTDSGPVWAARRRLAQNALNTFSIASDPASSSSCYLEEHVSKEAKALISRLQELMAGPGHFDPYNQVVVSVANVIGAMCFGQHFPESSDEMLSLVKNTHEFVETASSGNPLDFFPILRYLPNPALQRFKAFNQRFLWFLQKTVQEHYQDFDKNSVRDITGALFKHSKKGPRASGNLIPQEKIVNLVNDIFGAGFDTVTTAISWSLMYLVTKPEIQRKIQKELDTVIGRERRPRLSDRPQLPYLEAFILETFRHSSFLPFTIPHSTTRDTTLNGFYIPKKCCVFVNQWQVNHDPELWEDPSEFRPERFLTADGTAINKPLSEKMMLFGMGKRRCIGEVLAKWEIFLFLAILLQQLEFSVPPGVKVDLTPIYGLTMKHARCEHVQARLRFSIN

[7] = target: T3, CYP2C8; experiment: Inhibition of CYP2C8 in human liver microsomes assessed as enzyme-mediated metabolite formation at 30 uM using paclitaxel as substrate incubated for 5 mins followed by NADPH addition measured after 30 mins by LC-MS/MS analysis relative to control; design: scale not given: the % may be the effect or the level left; conditions: probe paclitaxel, read-out: Activity
[8] = target: T1, CYP2D6; experiment: Inhibition of CYP2D6 in human liver microsomes assessed as enzyme-mediated metabolite formation at 0.1 uM using dextromethorphan as substrate preincubated for 20 mins followed by substrate addition measured after 30 mins in presence of NADPH by LC-MS/MS analysis relative to control; design: scale not given: the % may be the effect or the level left; conditions: probe dextromethorphan, read-out: Activity
[9] = target: Cytochrome P450 2D6 (Homo sapiens, UniProt P10635); experiment: Inhibition of CYP2D6 in human liver microsomes assessed as enzyme-mediated metabolite formation using dextromethorphan as substrate incubated for 5 mins followed by NADPH addition measured after 30 mins by LC-MS/MS analysis
[10] = target: CYP2C19 (Homo sapiens, UniProt P33261); experiment: Inhibition of CYP2C19 in human liver microsomes assessed as enzyme-mediated metabolite formation at 10 uM using (S)-mephenytoin as substrate incubated for 5 mins followed by NADPH addition measured after 30 mins by LC-MS/MS analysis relative to control; design: scale not given: the % may be the effect or the level left; conditions: probe (S)-mephenytoin, read-out: Activity
[11] = target: CYP3A4 (Homo sapiens, UniProt P08684); experiment: Inhibition of CYP3A4 in human liver microsomes assessed as enzyme-mediated metabolite formation at 30 uM using midazolam as substrate incubated for 5 mins followed by NADPH addition measured after 30 mins by LC-MS/MS analysis relative to control; design: scale not given: the % may be the effect or the level left; conditions: probe midazolam, read-out: Activity
[12] = target: T5, Cytochrome P450 1A2 (Homo sapiens, UniProt P05177); experiment: Inhibition of CYP1A2 in human liver microsomes assessed as enzyme-mediated metabolite formation using phenacetin as substrate incubated for 5 mins followed by NADPH addition measured after 30 mins by LC-MS/MS analysis
T5 sequence (P05177 whole entry): T4 sequence (P05177 whole entry)

T1 sequence (P10635 whole entry): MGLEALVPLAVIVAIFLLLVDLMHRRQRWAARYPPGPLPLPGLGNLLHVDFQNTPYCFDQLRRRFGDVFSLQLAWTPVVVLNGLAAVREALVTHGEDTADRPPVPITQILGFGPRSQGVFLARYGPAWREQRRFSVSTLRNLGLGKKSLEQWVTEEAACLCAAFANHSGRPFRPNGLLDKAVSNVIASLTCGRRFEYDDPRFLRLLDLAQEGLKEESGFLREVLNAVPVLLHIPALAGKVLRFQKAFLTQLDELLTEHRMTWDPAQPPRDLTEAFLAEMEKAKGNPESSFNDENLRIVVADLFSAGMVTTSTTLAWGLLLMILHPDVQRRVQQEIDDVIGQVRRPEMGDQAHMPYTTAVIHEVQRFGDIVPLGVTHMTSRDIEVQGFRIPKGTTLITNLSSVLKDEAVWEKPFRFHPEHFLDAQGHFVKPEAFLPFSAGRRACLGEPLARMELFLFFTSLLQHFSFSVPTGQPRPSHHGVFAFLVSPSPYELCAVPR
Sequence of Cytochrome P450 2C19 (P33261 whole entry): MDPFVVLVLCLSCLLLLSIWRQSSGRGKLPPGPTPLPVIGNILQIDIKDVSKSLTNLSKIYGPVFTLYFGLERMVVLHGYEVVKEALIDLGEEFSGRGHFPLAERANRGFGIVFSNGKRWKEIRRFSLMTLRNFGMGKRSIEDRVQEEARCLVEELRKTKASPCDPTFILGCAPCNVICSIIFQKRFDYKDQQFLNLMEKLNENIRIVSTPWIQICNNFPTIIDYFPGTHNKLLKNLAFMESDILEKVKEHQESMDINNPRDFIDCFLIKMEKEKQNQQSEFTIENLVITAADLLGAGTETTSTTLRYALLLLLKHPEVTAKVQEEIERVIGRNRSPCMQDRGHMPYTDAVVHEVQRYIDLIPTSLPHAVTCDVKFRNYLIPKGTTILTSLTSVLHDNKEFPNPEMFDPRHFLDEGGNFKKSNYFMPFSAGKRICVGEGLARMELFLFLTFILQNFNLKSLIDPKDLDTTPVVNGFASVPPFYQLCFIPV
Sequence of CYP3A4 (P08684 whole entry): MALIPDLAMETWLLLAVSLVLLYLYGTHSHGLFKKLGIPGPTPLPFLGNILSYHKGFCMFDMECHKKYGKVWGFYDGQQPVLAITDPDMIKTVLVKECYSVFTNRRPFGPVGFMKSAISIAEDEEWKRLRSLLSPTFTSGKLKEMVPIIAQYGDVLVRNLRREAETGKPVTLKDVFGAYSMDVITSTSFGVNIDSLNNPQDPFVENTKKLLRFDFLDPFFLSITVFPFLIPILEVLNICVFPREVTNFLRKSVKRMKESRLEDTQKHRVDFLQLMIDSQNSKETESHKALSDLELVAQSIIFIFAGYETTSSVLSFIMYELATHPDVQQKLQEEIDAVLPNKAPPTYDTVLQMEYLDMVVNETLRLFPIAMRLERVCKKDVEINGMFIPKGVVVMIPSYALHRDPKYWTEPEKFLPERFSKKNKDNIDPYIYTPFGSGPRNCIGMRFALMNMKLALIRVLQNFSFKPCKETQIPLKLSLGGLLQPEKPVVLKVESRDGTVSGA
Sequence of Cytochrome P450 3A4 (P08684 whole entry): as above
Sequence of Cytochrome P450 2D6 (P10635 whole entry): as the sequence (P10635 whole entry) above
Sequence of CYP2C19 (P33261 whole entry): as the sequence (P33261 whole entry) above

CCCCCCCC(=O)CCc1ccc(O)c(OC)c1
activity at 0.5 h, 0.3 µM [1]: 87% | IC50 [2]: 5.8 µM | inhibition (INH) ([2]; human, 0.5 h): Dose-dependent effect | activity at 0.5 h, 3 µM [3]: 80.8% | IC50 [4]: > 30 µM | activity at 0.5 h, 0.1 µM [5]: 88.7% | activity at 0.5 h, 3 µM [6]: 72% | activity at 0.5 h, 30 µM [7]: 35.5% | activity at 0.5 h, 0.1 µM [8]: 89.5% | IC50 [9]: > 30 µM | activity at 0.5 h, 10 µM [10]: 51.5% | activity at 0.5 h, 30 µM [11]: 72% | IC50 [12]: 7.1 µM
